Assay results reported in patent publication US20110195924A1, “Methods of Inhibiting the Interaction Between S100P and the Receptor for Advanced Glycation End-Products” (priority 2008, published 2011).
“Also recorded” adds a separate entry of the source.

Assays:
S100P binding with RAGE = molecular target: T1, S100P binding with RAGE (Homo sapiens, UniProt P25815); assay: ELISA of S100P binding to RAGE (sRAGE coated plate)
T1 construct: full-length human S100P cDNA (NM_005980) was cloned into the pTrcHis2 vector; His; made in house; host or cells: bacteria (S100P)
T1 sequence (P25815 1-95): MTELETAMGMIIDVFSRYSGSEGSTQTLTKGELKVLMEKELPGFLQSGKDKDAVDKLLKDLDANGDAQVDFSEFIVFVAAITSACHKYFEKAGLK
Protocol: After removing un-bound S100P by washing with detergent, the bound S100P and RAGE complex was quantified by adding HRP labeled antibody against S100P. *, P=0.04 C5 1 μM versus cromolyn 5 μM. Two-tailed two-sample (unpaired) Student's t-tests were used to determine P values.
The plate was washed and the amount of bound S100P was quantitated using anti-S100P antibody.
The binding of S100P to RAGE was determined using an ELISA assay. sRAGE was attached to the dish and recombinant S100P (50 ng) was added with or without the indicated concentrations of cromolyn analogs. The plate was washed and the amount of bound S100P was quantitated using anti-S100P antibody.

NFκB activity = assay: S100P stimulated NFκB luciferase reporter in MPanc-96 cells; format: cell-based, Human; settings: S100P 100 nM, 5 hours
Protocol: MPanc-96 pancreatic cancer cell lines stably expressing an NFκB luciferase reporter were examined for the effects of S100P, cromolyn and C5. Cells were plated at 5.0×10^3 cells/well, treated for 5 hours with 100 nM of S100P, with or without cromolyn and C5 (1 μM), and activity of a luciferase gene driven by the NFkB promoter was analyzed. P=0.05 C5 versus cromolyn. Two-tailed two-sample (unpaired) Student's t-tests were used to determine P values.

BxPC-3 cells = assay: BxPC-3 cell viability, alone or with gemcitabine; format: cell-based; settings: 72 hours
Protocol: BxPC-3 cells were plated at 1.0×10^3 cells/well and treated with 0 μM, 1 μM, 10 μM, and 100 μM of cromolyn or C5 alone or in combination with gemcitabine 1 μM and cell viability was analyzed after 72 hours. Two-tailed two-sample (unpaired) Student's t-tests were used to determine P values. […] BxPC-3 cells were plated at 1.0×10^3 cells/well and treated with either 100 μM of cromolyn or 1 μM C5 alone or in combination with gemcitabine (1 μM) and cell viability was analyzed after 72 hours.

pancreatic cancer cells = assay: Apoptosis of pancreatic cancer cells with cromolyn analogs and cytotoxic drugs; format: cell-based
Protocol: (§1) Various cromolyn-based analogs were developed. The effects of the analogs on binding of S100P with RAGE were evaluated for the analogs using a sandwich ELISA. The effectiveness of the analogs to block cancer cell proliferatin and increase apoptosis in vitro were analyzed with and without cisplatin, 5-flurouracil and gemcitabine by MTS and FACS analysis. We also examined the ability of the analogs to inhibit S100P activation of NFkB signaling in cancer cells in vitro and in vivo. Finally, the effects of the novel analogs on tumor growth in vivo was evaluated. One analog, C5OH is shown below:
In this in vitro study, pancreatic cancer cells were treated with gemcitabine alone or in the presence of cromolyn analogs. The cromolyn analogs themselves have very little effect on the rates of cellular apoptosis, supporting their absence of general toxicity. However, all cromolyn analogs increased the killing of pancreatic cancer cells by gemcitabine.

NFkB activity = assay: S100P induced NFkB activity in cancer cells (analogs); format: cell-based
Protocol: as §1, with “evaluated.” for “evaluated. One analog, C5OH is shown below:”

MPanc-96 cells = assay: MPanc-96 cell apoptosis by flow cytometry, alone or with gemcitabine; format: cell-based, Human; settings: 100 and 1000 nM, 72 hours
Protocol: FIG. 11 compares the effects of cromolyn and C5 alone and in combination with gemcitabine on MPanc-96 cell apoptosis. MPanc-96 cells were treated with cromolyn or C5 (100 and 1000 nM) with (+) or without (−) gemcitabine (10 μM). Apoptosis was analyzed after 72 hours by flow cytometry.

S100B with RAGE = molecular target: T2, S100B with RAGE (Homo sapiens, UniProt P04271); assay: ELISA of S100B binding to RAGE (sRAGE coated plate)
T2 sequence (P04271 1-92): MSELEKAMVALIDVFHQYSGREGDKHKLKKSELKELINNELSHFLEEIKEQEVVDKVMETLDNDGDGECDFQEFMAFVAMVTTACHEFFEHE
Source text: After removing un-bound S100B by washing with detergent, bound S100B and RAGE complex was quantified by adding HRP labeled antibody against S100B.

MPanc96 tumors = assay: MPanc96 pancreatic tumor growth and survival in mice (analogs); format: in vivo; settings: mouse, in vivo
Protocol: as §1
Animals were implanted with MPanc96 cells, a gemcitabine resistant model of pancreatic cancer, and then treated with gemcitabine, C5OH, or the combination. […] Noteworthy, the addition of the hydroxyl group to the carbon chain in C5 allows easy modifications of this molecule. The hydroxyl can be substituted with fluoride that can be labeled for in vivo PET imaging. This hydroxyl can also be used to develop a pro-drug form of C5 by attaching other components with an ester bond.

SMILES: O=C([O-])c1cc(=O)c2c(OCCCCCOc3cccc4oc(C(=O)[O-])cc(=O)c34)cccc2o1.[Na+].[Na+] [C5, disodium 1,5-bis(2-carboxychromon-5-yloxy)pentane]
- blocking of the interaction / binding of S100P with RAGE (S100P binding with RAGE): blocked
- concentration achieving the same level of S100P inhibition (S100P binding with RAGE; FIG. 7): 100 nM
- potency in blocking S100P binding to RAGE relative to cromolyn or C5 (S100P binding with RAGE; analogs at 10-fold lower concentration than cromolyn): nearly equally potent and more efficient than cromolyn; also recorded: better than cromolyn
- reduction of S100P induced NFκB activity relative to cromolyn at the same dose (NFκB activity; 1 μM): much better than cromolyn
- NFκB activity in pancreatic cancer cells in vitro (NFκB activity; compound 1 μM): inhibit
- inhibiting cell viability in combination with gemcitabine, relative to cromolyn (BxPC-3 cells; BxPC-3, 1-100 μM with gemcitabine 1 μM): more potent and efficacious
- blocking cell growth alone, relative to cromolyn (BxPC-3 cells; BxPC-3, 10 or 100 μM): more potent and more efficacious than cromolyn
- concentration giving the same level of cell reduction in combination with gemcitabine (BxPC-3 cells; BxPC-3, gemcitabine 1 μM, FIG. 10): 1 µM
- BxPC-3 cell viability (BxPC-3 cells; alone and in conjunction with gemcitabine 1 μM): inhibit
- cancer cell apoptosis in response to various cytoxic treatments, relative to cromolyn (pancreatic cancer cells): at lesser concentrations and to a greater extent than did cromolyn
- killing of pancreatic cancer cells by gemcitabine (pancreatic cancer cells; with gemcitabine, C5 and C5OH at 10-fold lower concentration than cromolyn): worked equally well
- inhibition of S100P induced NFkB activity relative to cromolyn (NFkB activity): more potently and effectively than did cromolyn
- apoptosis in combination with gemcitabine, relative to cromolyn with gemcitabine (MPanc-96 cells; MPanc-96, gemcitabine 10 μM): induced more apoptosis than cromolyn
- MPanc-96 cell viability (MPanc-96 cells; alone and in conjunction with gemcitabine 10 μM): inhibit
- interaction of S100B with RAGE (S100B with RAGE): inhibit
- inhibition of tumor growth and survival in vivo, relative to cromolyn (MPanc96 tumors): superior to cromolyn
